Results on 34 compounds are retold here after ChEMBL document CHEMBL1287723, “The discovery of new spirocyclic muscarinic M3 antagonists” (Bioorg Med Chem Lett, 2010).

In data set [1] the target is T1, Muscarinic acetylcholine receptor M3 (Homo sapiens, UniProt P20309). The experiment in a line: Displacement of [3H]NMS from human muscarinic M3 receptor expressed in CHO-K1 cells after 16 hrs by scintillation proximity assay. The class given is cell-based.
Target sequence in this assay (P20309 whole entry): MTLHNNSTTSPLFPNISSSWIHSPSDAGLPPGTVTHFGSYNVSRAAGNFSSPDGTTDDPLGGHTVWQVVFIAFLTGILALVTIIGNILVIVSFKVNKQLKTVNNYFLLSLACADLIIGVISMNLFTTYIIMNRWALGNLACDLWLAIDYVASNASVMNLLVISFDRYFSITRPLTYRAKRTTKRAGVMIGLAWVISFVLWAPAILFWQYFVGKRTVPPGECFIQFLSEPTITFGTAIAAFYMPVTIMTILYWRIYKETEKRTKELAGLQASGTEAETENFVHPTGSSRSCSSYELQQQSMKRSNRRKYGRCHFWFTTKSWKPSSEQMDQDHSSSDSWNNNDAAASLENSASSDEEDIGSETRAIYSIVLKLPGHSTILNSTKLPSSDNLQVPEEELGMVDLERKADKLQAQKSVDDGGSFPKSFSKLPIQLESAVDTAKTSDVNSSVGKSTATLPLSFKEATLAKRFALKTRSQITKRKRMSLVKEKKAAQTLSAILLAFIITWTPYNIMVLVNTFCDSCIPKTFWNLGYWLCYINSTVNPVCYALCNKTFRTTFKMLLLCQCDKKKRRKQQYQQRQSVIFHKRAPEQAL
In data set [2] the target is T2, Muscarinic acetylcholine receptor M2 (Homo sapiens, UniProt P08172).
T2 sequence (P08172 whole entry): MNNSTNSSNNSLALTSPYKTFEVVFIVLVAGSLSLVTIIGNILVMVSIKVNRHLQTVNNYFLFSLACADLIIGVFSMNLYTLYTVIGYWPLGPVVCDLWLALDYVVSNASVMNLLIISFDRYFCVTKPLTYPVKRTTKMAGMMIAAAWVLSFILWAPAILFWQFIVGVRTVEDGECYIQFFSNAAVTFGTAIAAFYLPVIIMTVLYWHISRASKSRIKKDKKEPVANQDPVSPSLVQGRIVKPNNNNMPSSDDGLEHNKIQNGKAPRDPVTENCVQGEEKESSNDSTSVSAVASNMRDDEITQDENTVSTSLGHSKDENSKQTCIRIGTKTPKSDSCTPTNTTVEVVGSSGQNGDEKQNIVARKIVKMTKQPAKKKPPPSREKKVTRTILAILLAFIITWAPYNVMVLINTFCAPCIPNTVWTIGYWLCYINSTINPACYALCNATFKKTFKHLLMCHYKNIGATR
The experiment in a line: Displacement of [3H]NMS from human muscarinic M2 receptor expressed in CHO-K1 cells after 16 hrs by scintillation proximity assay. The class given is cell-based. (In general: Loss of bound radioactivity is the signal in a displacement assay; it reports binding, not function.)

In data set [3] the target is T1, Muscarinic acetylcholine receptor M3. The data set is described as follows: Displacement of [3H]NMS from human muscarinic M3 receptor expressed in CHO-K1 cells at 1 uM after 16 hrs by scintillation proximity assay. The class given is cell-based.
Target sequence in this assay (P20309 whole entry, looked up): as the sequence (P20309 whole entry) above
Data set [4] in a line: Clearance in human microsomes. The class given is ADME, Microsome.
The subject of the next data set is Hepatocyte. The data set is described as follows: Clearance in rat hepatocytes. The class given is ADME, cell-based, Liver.
Data set [5] is described as follows: Lipophilicity, log D of the compound. The class given is physicochemical. The note with it: octanol/water.
The target of data set [6] is T3, Muscarinic acetylcholine receptor M4 (Homo sapiens, UniProt P08173).
T3 sequence (P08173 whole entry): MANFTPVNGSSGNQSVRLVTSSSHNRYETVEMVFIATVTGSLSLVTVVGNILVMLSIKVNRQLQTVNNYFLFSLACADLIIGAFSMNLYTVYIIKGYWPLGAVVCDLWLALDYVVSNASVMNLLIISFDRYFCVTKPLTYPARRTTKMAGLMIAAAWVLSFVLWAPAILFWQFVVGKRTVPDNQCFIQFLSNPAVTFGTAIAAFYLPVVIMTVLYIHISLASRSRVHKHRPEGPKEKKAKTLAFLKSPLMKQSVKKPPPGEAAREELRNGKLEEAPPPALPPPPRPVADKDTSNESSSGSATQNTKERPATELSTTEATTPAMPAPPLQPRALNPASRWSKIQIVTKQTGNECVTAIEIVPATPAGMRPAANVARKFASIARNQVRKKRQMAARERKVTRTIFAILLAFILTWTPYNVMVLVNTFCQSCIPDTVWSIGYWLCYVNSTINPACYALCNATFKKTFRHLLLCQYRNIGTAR
The data set is described as follows: Displacement of [3H]NMS from human muscarinic M4 receptor expressed in CHO-K1 cells after 16 hrs by scintillation proximity assay. The class given is cell-based.

The target in data set [7] is T4, Muscarinic acetylcholine receptor M5 (Homo sapiens, UniProt P08912).
T4 sequence (P08912 whole entry): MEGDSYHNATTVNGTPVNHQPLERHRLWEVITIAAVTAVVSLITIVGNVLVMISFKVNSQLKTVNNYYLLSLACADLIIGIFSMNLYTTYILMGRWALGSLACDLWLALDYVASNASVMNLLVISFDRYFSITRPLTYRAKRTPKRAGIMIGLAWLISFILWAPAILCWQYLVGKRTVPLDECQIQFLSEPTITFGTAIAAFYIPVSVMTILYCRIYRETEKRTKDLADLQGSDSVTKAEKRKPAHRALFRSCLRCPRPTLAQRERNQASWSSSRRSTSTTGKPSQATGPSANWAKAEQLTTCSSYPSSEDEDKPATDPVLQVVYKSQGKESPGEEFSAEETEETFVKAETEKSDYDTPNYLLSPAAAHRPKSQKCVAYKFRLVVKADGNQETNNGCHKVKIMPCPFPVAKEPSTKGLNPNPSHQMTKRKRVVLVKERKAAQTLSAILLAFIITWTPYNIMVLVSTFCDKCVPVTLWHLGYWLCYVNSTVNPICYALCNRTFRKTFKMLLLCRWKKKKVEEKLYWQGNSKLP
The experiment in a line: Displacement of [3H]NMS from human muscarinic M5 receptor expressed in CHO-K1 cells after 16 hrs by scintillation proximity assay. The class given is cell-based.

For data set [8], the target named is T5, Muscarinic acetylcholine receptor M1 (Homo sapiens, UniProt P11229).
T5 sequence (P11229 whole entry): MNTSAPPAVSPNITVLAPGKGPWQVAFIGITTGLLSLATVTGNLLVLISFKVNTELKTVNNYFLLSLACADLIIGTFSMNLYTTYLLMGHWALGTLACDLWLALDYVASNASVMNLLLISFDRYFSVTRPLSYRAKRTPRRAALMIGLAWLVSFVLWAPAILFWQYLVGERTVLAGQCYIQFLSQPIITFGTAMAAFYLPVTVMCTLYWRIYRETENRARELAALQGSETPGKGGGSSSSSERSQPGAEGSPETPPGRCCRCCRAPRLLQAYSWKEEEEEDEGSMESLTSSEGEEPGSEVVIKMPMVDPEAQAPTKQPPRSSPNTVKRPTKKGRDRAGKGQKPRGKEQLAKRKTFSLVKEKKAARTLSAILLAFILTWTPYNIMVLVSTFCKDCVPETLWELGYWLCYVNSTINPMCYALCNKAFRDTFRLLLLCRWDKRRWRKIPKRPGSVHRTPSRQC
The data set is described as follows: Displacement of [3H]NMS from human muscarinic M1 receptor expressed in CHO-K1 cells after 16 hrs by scintillation proximity assay. The class given is cell-based.

For the compound `Cc1nc(C(=O)N2CCCC3(CCN(Cc4ccc(Cl)cc4)CC3)C2)cs1`, the half-inhibitory concentration (IC50) in [1] and in [2] was > 1000 nM each time.
In the case of `O=C(c1ccsc1)N1CCC2(CCN(Cc3ccccc3)CC2)CC1`, the IC50 in data set [1] was 316 nM; in [2] it was 15.8 nM.
Regarding `Cc1ccccc1CN1CCC2(CC1)CN(C(=O)c1csc(C(C)C)n1)CCO2`, the IC50 is 398 nM in data set [1] and 794 nM in data set [2].
On to `O=C(c1ccc2occc2c1)N1CCOC2(CCN(Cc3ccc(Cl)cc3)CC2)C1`, for which the IC50 in data set [1] and in [2] was 31.6 nM each time.
As to `O=C(c1ncccn1)N1CCC2(CCN(Cc3ccccc3)CC2)CC1`, the half-maximal inhibitory concentration (IC50) in data set [2] was 251 nM. Besides, the inhibition in data set [3] is < 50%.
Consider `CCc1nc(C(=O)N2CCOC3(CCN(Cc4ccc(Cl)cc4)CC3)C2)cs1`, for which the IC50 in data set [1] is 15.8 nM; in [2] it was 12.6 nM.
Consider `O=C(c1ncccn1)N1CCOC2(CCN(Cc3ccc(Cl)cc3)CC2)C1`, for which the values for the IC50 in [1] and in data set [2] were 398 nM and 126 nM, respectively.
As to `O=C(c1ccco1)N1CCC2(CCN(Cc3ccccc3)CC2)CC1`, the IC50 is > 1000 nM in data set [1] and 79.4 nM in data set [2].
Regarding `O=C(c1cccnc1)N1CCC2(CCN(Cc3ccccc3)CC2)CC1`, the IC50 was > 1000 nM in data set [1] and 79.4 nM in data set [2].
Regarding `Cc1ccc(C(=O)N2CCOC3(CCN(Cc4ccc(Cl)cc4)CC3)C2)o1`, the IC50 in [1] and in [2] was 50.1 nM throughout.
With `Cc1nc(C(=O)N2CCOC3(CCN(Cc4cccc(Cl)c4)CC3)C2)cs1`, the IC50 in data set [1] and in data set [2] was 1.26 nM each time.
As to `Cc1nc(C(=O)N2CCCC3(CCN(Cc4ccccc4)CC3)C2)cs1`, the IC50 in data set [1] and in data set [2] was > 1000 nM throughout.
With `O=C(c1cscn1)N1CCOC2(CCN(Cc3ccc(Cl)cc3)CC2)C1`, the IC50 in [1] is 158 nM; in data set [2], 50.1 nM.
Turning to `CCOc1ccccc1C(=O)N1CCC2(CCN(Cc3ccccc3)CC2)CC1`, the values for the IC50 in data set [1] and in data set [2] were 794 nM and 79.4 nM, respectively.
The corresponding values for `O=C(c1ccco1)N1CCOC2(CCN(Cc3ccc(Cl)cc3)CC2)C1` are 63.1 nM and 25.1 nM.
As to `O=C(c1ccccc1)N1CCC2(CCN(Cc3cccc(Cl)c3)CC2)CC1`, the IC50 is 100 nM in data set [1] and 3.98 nM in data set [2].
On the same counts, the results for `O=C(c1ccoc1)N1CCOC2(CCN(Cc3ccc(Cl)cc3)CC2)C1` are 126 nM and 63.1 nM.
`O=C(c1ccccc1)N1CCOC2(CCN(Cc3ccc(Cl)cc3)CC2)C1`: the IC50 is 251 nM in data set [1] and 126 nM in [2].
In the case of `CC(C)c1nc(C(=O)N2CCOC3(CCN(Cc4ccccc4)CC3)C2)cs1`, the IC50 in data set [1] is 3.98 nM; in [2], 15.8 nM.
The corresponding values for `CC(C)c1nc(C(=O)N2CCOC3(CCN(Cc4ccccc4Cl)CC3)C2)cs1` are 20 nM and 25.1 nM.
Regarding `O=C(c1ccccc1)N1CCC2(CCN(Cc3ccccc3)CC2)CC1`, the IC50 is 126 nM in [1] and 6.31 nM in [2].
For the compound `Cc1nc(C(=O)N2CCOC3(CCN(Cc4ccc(Cl)cc4)CC3)C2)cs1`, the values for the IC50 in data set [1] and in data set [2] were 10 nM and 3.16 nM, respectively. The same compound displayed a microsomal CLint in data set [4] of 11 µL/min/mg. For the same compound, the CL with Hepatocyte was 47 µL/min/mg. The logD in [5] amounted to 2.2.
As to `CC(C)c1nc(C(=O)N2CCOC3(CCN(Cc4ccc(Cl)cc4)CC3)C2)cs1`, the IC50 in [1] is 15.8 nM; in data set [2], 31.6 nM.
With `O=C(c1cccs1)N1CCOC2(CCN(Cc3ccc(Cl)cc3)CC2)C1`, the values for the IC50 in data set [1] and in data set [2] were 63.1 nM and 20 nM, respectively.
`O=C(c1ccon1)N1CCOC2(CCN(Cc3ccc(Cl)cc3)CC2)C1`: the IC50 was 398 nM in data set [1] and 79.4 nM in [2].
For `C[N+]1(C)[C@@H]2C[C@@H](OC(=O)C(O)(c3cccs3)c3cccs3)C[C@H]1[C@@H]1O[C@@H]12` [TIOTROPIUM BROMIDE], the IC50 in [6] is 0.0398 nM; in [7], 0.1 nM.
For `Cc1nc(C(=O)N2CCOC3(CCN(Cc4ccccc4Cl)CC3)C2)cs1`, the values for the IC50 in data set [1] and in data set [2] were 7.94 nM and 3.16 nM, respectively.
The corresponding values for `O=C(c1cnsn1)N1CCOC2(CCN(Cc3ccc(Cl)cc3)CC2)C1` are 200 nM and 39.8 nM.
Consider `CC(C)(C)c1nc(C(=O)N2CCOC3(CCN(Cc4ccc(Cl)cc4)CC3)C2)cs1`, for which the IC50 in data set [1] and in data set [2] was > 1000 nM each time.
On to `O=C(c1ccc(CO)o1)N1CCOC2(CCN(Cc3ccc(Cl)cc3)CC2)C1`, for which the results for the IC50 in data set [1] and in data set [2] were 100 nM and 126 nM, respectively.
In the case of `CC(C)c1nc(C(=O)N2CCOC3(CCN(Cc4cccc(Cl)c4)CC3)C2)cs1`, the IC50 in data set [1] was 5.01 nM; in data set [2] it was 10 nM.
`O=C(O[C@H]1C[N+]2(CCCOc3ccccc3)CCC1CC2)C(O)(c1cccs1)c1cccs1` [ACLIDINIUM BROMIDE]: the IC50 in data set [8] was 0.1 nM; in [6] it was 0.2 nM; in data set [7] it was 0.158 nM.
With `O=C(c1cccnc1)N1CCOC2(CCN(Cc3ccc(Cl)cc3)CC2)C1`, the IC50 in [1] was > 1000 nM.
As for `Cc1cccc(CN2CCC3(CC2)CCN(C(=O)c2ccccc2)CC3)c1`, the IC50 in [1] was 100 nM; in [2], 2.51 nM.

One may read the IC50 as the concentration that gives 50% inhibition. A high value points to a need for much substance. In general, inhibition refers to the relative decrease from the control value, in per cent. Low values mean little suppression, high ones strong suppression. What is called microsomal CLint is a measure of how fast metabolising enzymes remove a compound, apart from limits set by blood flow. As usually defined, the logD is lipophilicity at a set pH, counting ionised and neutral species. Higher therefore signals a more lipophilic compound.
